Experimental findings from article PMC2852483 (Molecular cancer therapeutics, 2010) are described below.

Numbered stars: 1 amine (or outer) side, 2 acyl side, 3 side chain; on linkers, the order of the positions; unused ones are H or OH. Square brackets hold non-standard residues; d marks the D form. Side chains are listed from the residue outwards. Peptide text beside a SMILES is read from it. * marks the point of attachment. NOTA(2S-Bn(4-NHCS)) = O=C(O)CN1CCN(CC(=O)O)C[C@H](Cc2ccc(NC(=S)*)cc2)N(CC(=O)O)CC1; NH(2-(imidazol-4-yl)ethyl) = c1ncc(CCN*)[nH]1; Suc = O=C(CCC(=O)[*:2])[*:1]

On the set-up of data set [1]: species or system nude BALB/c mice. To be noted: mouse, in vivo, 5 MBq.
For data set [2], the system named is s.c. CEA-expressing LS174T tumor. Further details: species or system nude BALB/c mice. Particulars: mouse.

Usually tissue uptake stands for the percentage of the injected dose found per gram of tissue. A higher tissue uptake goes with strong accumulation. `C[C@@H](NC(=S)Nc1ccc(C[C@H]2CN(CC(=O)O)CCN(CC(=O)O)CCN2CC(=O)O)cc1)C(=O)N[C@H](CCCCNC(=O)CNC(=O)CCC(=O)NCCc1c[nH]cn1)C(=O)N[C@H](Cc1ccc(O)cc1)C(=O)N[C@H](CCCCNC(=O)CNC(=O)CCC(=O)NCCc1c[nH]cn1)C(N)=O` [IMP-449] ({NOTA(2S-Bn(4-NHCS))}-[dA][dK]([Gly-Suc-NH(2-(imidazol-4-yl)ethyl)])[dY][dK]([Gly-Suc-NH(2-(imidazol-4-yl)ethyl)])-NH2; N-terminus and C-terminus assumed) came in with a tissue uptake in data set [1] of 0.54 ± 0.2 %ID/g.
In the case of `C[C@@H](NC(=S)Nc1ccc(C[C@H]2CN(CC(=O)O)CCN(CC(=O)O)CCN2CC(=O)O)cc1)C(=O)N[C@H](CCCCNC(=O)CNC(=O)CCC(=O)NCCc1c[nH]cn1)C(=O)N[C@H](Cc1ccc(O)cc1)C(=O)N[C@H](CCCCNC(=O)CNC(=O)CCC(=O)NCCc1c[nH]cn1)C(N)=O` [^18F-IMP-449] ({NOTA(2S-Bn(4-NHCS))}-[dA][dK]([Gly-Suc-NH(2-(imidazol-4-yl)ethyl)])[dY][dK]([Gly-Suc-NH(2-(imidazol-4-yl)ethyl)])-NH2; N-terminus and C-terminus assumed), the stability in vivo result in data set [2] is listed as “stable in vivo”. Further, in data set [2] (in vivo), the “tumor uptake in non-pretargeted mice” value is listed as 0.45 ± 0.38 % ID/g.
